Results from patent US4298739A, “Novel carbostyril derivatives” (priority 1977, dated 1981).

Assays:
rabbit platelet [1] = assay: Collagen-induced aggregation in rabbit platelets (AG-II Aggregometer); format: cell-based; settings: Oryctolagus cuniculus, Platelet, read-out: Inhibition effect on collagen induced aggregation in rabbit platelet; for inhibition at 100 µM (stock): 10^-4 mole; for inhibition at 10 µM (stock): 10^-5 mole; for inhibition at 1 µM (stock): 10^-6 mole
Procedure: (§1) The platelet aggregation inhibitory effect is measured by using AG-II Aggregometer (manufactured by Bryston Manufacturing Co.). The blood sample used for the test is a 1/9 (by volume) mixture of sodium citrate and whole blood collected from rabbit. Said sample is subjected to 10-minute centrifugal separation at 1,000 r.p.m. to obtain a platelet rich plasma (PRP). The thus obtained PRP is separated, and the remaining blood sample is further subjected to 15-minute centrifugal separation at 3,000 r.p.m. to obtain a platelet poor plasma (PPP).
(§2) The number of platelets in the PRP is counted by the Brecher-Clonkite Method, and the PRP is diluted with the PPP to prepare a PRP sample with platelet concentration of 300,000/mm^3 for the adenosine diphosphate (ADP)-induced aggregation test. There is also prepared a PRP sample with platelet concentration of 450,000/mm^3 for the collagen-induced aggregation test.
(§3) 0.6 ml of said PRP sample is added into 0.01 ml of a solution of a test compound of a predetermined concentration and the mixture is placed in a 37° C. thermostat for one minute. Then 0.07 ml of an ADP or collagen solution is added to the mixture. Transmittance of this mixture is determined and the change of transmittance is recorded by using the aggregometer at stirrer speed of 1,100 r.p.m. In this test, Auren Beronal buffer (pH 7.35) is used for the preparation of the ADP or collagen solution. ADP is adjusted to a concentration of 7.5×10^-5 M, and the collagen solution is prepared by triturating 100 mg of collagen with 5 ml of said buffer and the supernatant is used as collagen inducer. Adenosine and acetylsalicylic acid are used as controls for the ADP-induced aggregation test and the collagen-induced aggregation test, respectively. The platelet aggregation inhibitory effect is measured in terms of percent inhibition with respect to the aggregation rate of the controls. The aggregation rate is calculated from the following formula:
(§4) Aggregation rate=(c-a)/(b-a)×100
(§5) b: transmittance of PRP containing a test compound and an aggregation inducer
(§6) The inhibitory effect of the tested compounds on collagen-induced aggregation in rabbit platelets is shown in Table 1, and such effect on ADP-induced aggregation is shown in Table 2. The compounds tested are as follows.

[2] = Acute toxicity test, oral administration to mice; format: in vivo; settings: mouse, in vivo, Male mice
Procedure: The test compounds were administered orally to the mice and LD50 (mg/kg) of the compounds was determined.

rabbit platelet [3] = assay: ADP-induced aggregation in rabbit platelets (AG-II Aggregometer); format: cell-based; settings: Oryctolagus cuniculus, Platelet, read-out: Inhibition effect on ADP-induced aggregation in rabbit platelet; for inhibition at 100 µM (stock): 10^-4 mole; for inhibition at 10 µM (stock): 10^-5 mole; for inhibition at 1 µM (stock): 10^-6 mole
Procedure: as §1, §2, §3, §4, §5, §6

Compound | inhibition at 100 µM (stock) (rabbit platelet [1]) | inhibition at 10 µM (stock) (rabbit platelet [1]) | inhibition at 1 µM (stock) (rabbit platelet [1]) | LD50 [2] | inhibition at 100 µM (stock) (rabbit platelet [3]) | inhibition at 10 µM (stock) (rabbit platelet [3]) | inhibition at 1 µM (stock) (rabbit platelet [3])
CN(C(=O)CCCOc1ccc2c(c1)CCC(=O)N2)C1CCCCC1 [compound 15, 6-[3-(N-Methyl-N-cyclohexylaminocarbonyl)propoxy]-3,4-dihydrocarbostyril] | 94% | 92.6% | 34.1% | > 1000 mg/kg | 88.3% | 26.8% | 10.8%
O=C(CCCOc1ccc2[nH]c(=O)ccc2c1)N(c1ccccc1)C1CCCCC1 [compound 17, 6-[3-(N-Cyclohexylanilinocarbonyl)propoxy]carbostyril] | 91.5% | 53.8% | 16.7% | > 1000 mg/kg | 82.5% | 38.7% | 12.3%
O=C(CCCOc1ccc2c(c1)CCC(=O)N2)Nc1ccccc1 [compound 19, 6-[3-(Anilinocarbonyl)propoxy]-3,4-dihydrocarbostyril] | 93.8% | 17.4% | – | > 1000 mg/kg | 24.6% | 16.2% | –
CCCCN(C(=O)CCCCOc1ccc2c(c1)CCC(=O)N2)C1CCCCC1 [compound 22, 6-[4-(N-Butyl-N-cyclohexylaminocarbonyl)buthoxy]-3,4-dihydrocarbostyril] | 85.6% | 78.5% | 28.7% | > 1000 mg/kg | 71.5% | 32.7% | 10.5%
O=C1CCc2cc(OCCCC(=O)N(c3ccccc3)c3ccccc3)ccc2N1 [compound 24, 6-[3-(N,N-Diphenylaminocarbonyl)propoxy]-3,4-dihydrocarbostyril] | 82.7% | 43.5% | 15.5% | > 1000 mg/kg | 43.2% | 22.3% | 13.4%
CC(C)(Oc1ccc2c(c1)CCC(=O)N2)C(=O)O [compound 38, 6-(1-Methyl-1-carboxyethoxy)-3,4-dihydrocarbostyril, reference compound] | 5% | 3% | 0% | 800 to 1000 mg/kg | 10% | 5% | 3%
O=C(O)CCCOc1ccc2[nH]c(=O)ccc2c1 [compound 39, 6-(3-Carboxypropoxy)carbostyril, reference compound] | 28% | 15% | 0% | > 1000 mg/kg | 52% | 23% | 5%
O=C1CCc2cc(OCCCC(=O)OC3CCCCC3)ccc2N1 [compound 40, 6-(3-Cyclohexyloxycarbonylpropoxy)-3,4-dihydrocarbostyril, reference compound] | 12% | 8% | 0% | 500 to 800 mg/kg | 28% | 16% | 7%
CC(C)NC(=O)CCOc1cccc2c1CCC(=O)N2 [compound 41, 5-(N-Isopropylaminocarbonylethoxy)-3,4-dihydrocarbostyril, reference compound] | 17% | – | 0% | 500 to 800 mg/kg | 18% | 13% | 7%
O=C1CCc2c(cccc2OCC(=O)N2CCOCC2)N1 [compound 42, 5-(Morpholinocarbonylmethoxy)-3,4-dihydrocarbostyril, reference compound] | 5% | 0% | 0% | 400 to 600 mg/kg | 13% | 6% | 0%
CN(C)C(=O)COc1cccc2c1CCC(=O)N2 [compound 43, 5-(N,N-dimethylaminocarbonylmethoxy)-3,4-dihydrocarbostyril, reference compound] | 27% | 13% | 0% | 500 to 700 mg/kg | 22% | 17% | 8%
CCN1C(=O)CCc2c(OCCCC(=O)NCc3ccccc3)cccc21 [compound 44, 1-Ethyl-5-[3-(N-benzylaminocarbonyl)propoxy]-3,4-dihydrocarbostyril, reference compound] | 7% | 0% | 0% | 500 to 600 mg/kg | 14% | 6% | 0%
CCCNC(=O)CC(C)COc1ccc2c(c1)CCC(=O)N2 (stereo not shown) [compound 45, 6-[3-(N-Propylaminocarbonyl)-2-methylpropoxy]-3,4-dihydrocarbostyril, reference compound] | 12% | 5% | 0% | 500 to 800 mg/kg | 32% | 17% | 9%
